According to the Bradley open melting point set (2014):

| Structure (SMILES) | melting point [°C] |
| --- | --- |
| COc1ccccc1[N+](=O)[O-] [2-nitroanisole] | 10 |
| O=C\1\C=C/[C@]4(/C(=C/1)CC[C@@H]2[C@@H]4[C@@H](O)C[C@@]3([C@@](O)(C(=O)CO)CC[C@@H]23)C)C [prednisolone] | 240 |
| Cc1c(N(C)C)c(=O)n(-c2ccccc2)n1C [4-(dimethylamino)antipyrine] | 107 |
| CCCCc1ccc(C(=O)Oc2ccc(C#N)cc2)cc1 [4-cyanophenyl 4-n-butylbenzoate] | 68 |
| Nc1ccccc1CO [o-amino_benzyl_alcohol] | 83 |
| C=CCc1ccc(O)c(OC)c1 [4-Allyl-2-methoxyphenol] | -9 |
| CC(C)C=O [isobutyraldehyde] | -65 |
| O=C(O)C1C(C(=O)O)C2(Cl)C(Cl)=C(Cl)C1(Cl)C2(Cl)Cl (stereo not drawn) | 240 |
| COC(=O)c1ccc(O)cc1 [methyl_4-hydroxybenzoate] | 128 |
| c1ccc2cc3cc4ccccc4cc3cc2c1 [naphthacene] | 357 |
| Cc1cccc(O)c1 [m-cresol] | 11 |
| CCCCNC(=S)NCCCC [N,N'-di-n-butylthiourea] | 66 |
| ClC(Cl)(Cl)Cl [tetrachloromethane] | -23 |
| CC(Br)C(C)(C)Br (stereo not drawn) [2,3-dibromo-2-methylbutane] | 15 |
| C=Cc1ccc(C)cc1 [4-methylstyrene] | -34 |
| Ic1cccc(I)c1 [m-diiodobenzene] | 37 |
| O=Cc1ccccc1O [Salicylaldehyde] | 1.5 |
| CCCCI [1-Iodobutane] | -103 |
| Cc1cccc(Br)c1 [3-bromotoluene] | -40 |
| Nc1cccc(-n2ccccc2=O)c1 [1-(3-Aminophenyl)pyridin-2(1H)-one] | 183 |
| Nc1ncc(C(F)(F)F)cc1Br [2-amino-3-bromo-5-(trifluoromethyl)pyridine] | 100 |
| O=C(O)Cc1ccc(O)c(O)c1 [3,4-dihydroxyphenylacetic acid] | 129 |
| Clc1cc(Cl)c(I)c(Cl)c1 [1,3,5-trichloro-2-iodobenzene] | 55 |
| COc1cc(N=C=S)cc(OC)c1 [3,5-dimethoxyphenyl isothiocyanate] | 51 |
| CCc1ccccc1CC [o-diethylbenzene] | -31 |

| Structure (SMILES) | melting point [°C] |
| --- | --- |
| CN(C)c1ccc(C2Nn3c(COc4ccccc4)nnc3S2)cc1 (stereo not drawn) | 144 |
| C1CCOC1 [Tetrahydrofuran] | -108 |
| CC(O)C1(O)CCC2C3CCC4(C)CC(O)CCC4(C)C3CCC21C (stereo not drawn) [5-methylpregnane-3,17,20-triol] | 219 |
| CCSc1ccc(B(O)O)cc1 [4-(ethylthio)benzeneboronic acid] | 105 |
| CC(C)C1=C(O)C(=O)C2=C(C1=O)C(O)CC1C(C)(C)CCCC21C (stereo not drawn) | 174 |
| CCOC(=O)C=C1SC(N2CCCCC2)C(=O)N1CC (stereo not drawn) | 86 |
| NCCC(=O)O [beta-alanine] | 200 |
| CC(=O)OC1COC(C#N)C(OC(C)=O)C1OC(C)=O (stereo not drawn) | 134 |
| NCCCCCCN [1,6-diaminohexane] | 41 |
| CC(=O)Nc1cccc2c(N)cccc12 [N-(5-aminonaphthalen-1-yl)acetamide] | 166 |
| CCC(=O)OC(Cc1ccccc1)(c1ccccc1)C(C)CN(C)C (stereo not drawn) [propoxyphene] | 75 |
| Oc1ccc(O)cc1 [hydroquinone] | 175 |
| Ic1ccc(-c2ccccc2)cc1 [4-iodobiphenyl] | 114 |
| CCC(C)C(C)(COC(N)=O)COC(N)=O (stereo not drawn) [mebutamate] | 77 |
| CCC(Br)CBr (stereo not drawn) [1,2-dibromobutane] | -65 |
| Cc1ccccc1 [Toluene] | -93 |
| CCCCC1C(=O)N(c2ccccc2)N(c2ccccc2)C1=O [Phenylbutazone] | 105 |
| CCCCNCCCC [di-n-butylamine] | -62 |
| Cc1cc(F)ccc1O [4-fluoro-2-methylphenol] | 34 |
| C[C@@H]1[C@H](O)[C@@H](C)C=CC=CC=CC=CC=CC=CC=C[C@H](O[C@@H]2O[C@H](C)[C@@H](O)[C@H](N)[C@@H]2O)C[C@@H]2O[C@](O)(C[C@@H](O)C[C@@H](O)[C@H](O)CC[C@@H](O)C[C@@H](O)CC(=O)O[C@H]1C)C[C@H](O)[C@H]2C(=O)O [Amphotericin B] | 170 |
| CCCCCCCCCCCCCCCCCCCCC [N-heneicosane] | 41 |
| CCOc1ccc(B(O)O)cc1 [4-ethoxybenzeneboronic acid] | 167 |
| CC(=O)c1cccc2ccccc12 [1-acetylnaphthalene] | 10 |
| CC12CCCCC1CCC1C2CCC2(C)C1CCC2(O)C#Cc1ccccc1 (stereo not drawn) [21-phenylpregn-20-yn-17-ol] | 103 |
| Cc1ccc2cc([N+](=O)[O-])ccc2n1 [2-methyl-6-nitroquinoline] | 164 |

| Structure (SMILES) | melting point [°C] |
| --- | --- |
| SCc1ccc(Cl)cc1 [4-chlorobenzyl mercaptan] | 20 |
| N#Cc1cccc(I)c1 [3-iodobenzonitrile] | 40 |
| FC(F)(F)c1cccc(Br)n1 [2-bromo-6-(trifluoromethyl)pyridine] | 50 |
| C[C@]12CCC(O)CC1CC[C@@H]1[C@@H]2CC[C@@]2(C)[C@H]1CC[C@]2(O)C#Cc1ccccc1 (stereo partly drawn) [21-phenylpregn-20-yne-3,17-diol] | 122 |
| CCCCCC(=O)O [hexanoic acid] | -1.9 |
| C1=CC2CCC1C2 [norbornene] | 46 |
| C=C(C)C(=C)C [2,3-dimethyl-1,3-butadiene] | -76 |
| N#CCc1c[nH]cn1 [(4-imidazolyl)acetonitrile] | 137 |
| Nc1ccc(S(=O)(=O)Nc2nccs2)cc1 [4-Amino-N-(1,3-thiazol-2-yl)benzenesulfonamide] | 202 |
| O=S(=O)(Cl)c1ccc(Cl)cc1 [4-chlorobenzenesulfonyl chloride] | 52 |
| CC(C(=O)O)c1cccc(C(=O)c2ccccc2)c1 (stereo not drawn) [Ketoprofen] | 93 |
| Nc1ccc(C(=O)O)cc1 [p-aminobenzoic acid] | 189 |
| O=C(/C=C/c1ccc(Br)o1)c1ccco1 [(2E)-3-(5-bromofuran-2-yl)-1-furan-2-ylprop-2-en-1-one] | 77 |
| CCCCC(CC)CO (stereo not drawn) [2-Ethylhexan-1-ol] | -76 |
| O=C(O)c1cc(F)ccc1O [5-fluorosalicylic acid] | 180 |
| Nc1ccc(S(=O)(=O)Nc2ncccn2)cc1 [Sulfadiazine] | 259 |
| C1CCC(NC2CCCCC2)CC1 [dicyclohexylamine] | -2 |
| C=C(C)C(C)C [2,3-dimethyl-1-butene] | -157 |
| Oc1c(Br)cc(Br)cc1Br [2,4,6-tribromophenol] | 89 |
| CC(=O)O[C@]1(C(C)=O)CC[C@H]2[C@@H]3C[C@H](C)C4=CC(=O)CC[C@]4(C)[C@H]3CC[C@@]21C [(6alpha)-6-Methyl-3,20-dioxopregn-4-en-17-yl acetate] | 208 |
| CC1CNCC(C)O1 (stereo not drawn) [2,6-Dimethylmorpholine] | -85 |
| Cc1cc(CCl)c(C)cc1CCl [2,5-Di(Chloromethyl)-p-xylene] | 132 |
| OCC(O)C(O)CO (stereo not drawn) [meso-erythritol] | 122 |
